Measured values from patent publication US8703483B2, “Reagents and methods for using human embryonic stem cells to evaluate toxicity of pharmaceutical compounds and other chemicals” (Wisconsin Alumni Research Foundation, priority 2006, dated 2014).

Tested on: human embryonic stem cells
Assay: Metabolite profiling (LC/ESI-TOF mass spectrometry) of extracellular media of hESCs treated with alcohol
Assay type: cell-based
Conditions: ETOH 0.1; 4 D
Description: Binned masses were annotated in silico by querying the neutral masses in several different databases. These databases included Metlin, Biological Magnetic Resonance Data Bank (BMRB), NIST Chemistry WebBook, and the Human Metabolome Database. A mass was considered identified when its neutral mass was within 10 ppm of a known compound annotated in one of the databases listed above.

CCO [ETOH]
Fold: 2-Oxo-4-methylthiobutanoic acid, mass 148.016, RT 52.88652: −2.444 fold | Fold: 3-(2,5-Dimethoxy phenylpropionic acid, mass 210.0922, RT 36.18938): 1.864 fold | Fold: (+)-Eudesmin, mass 386.1724, RT 51.65871: 5.309 fold | Fold: (+/−)-2-(4′-Isobutylphenyl)propionitrile, mass 187.1348, RT 46.31086: 2.329 fold | Fold: Acetylcarnitine / L-Glutamic acid n-butyl ester, mass 203.1138, RT 9.675726: −1.707 fold | Fold: Benzenemethanol, 2-(2-aminopropoxy)-3-methyl- / a-[1-(ethylamino)ethyl]-p-hydroxy-Benzyl alcohol, mass 195.124, RT 31.19917: −2.225 fold | Fold: Benzenemethanol, 2-(2-aminopropoxy)-3-methyl- / a-[1-(ethylamino)ethyl]-p-hydroxy-Benzyl alcohol, mass 195.1253, RT 38.99212: 2.159 fold | Fold: Homogentisic acid / Vanillic acid, mass 168.0434, RT 19.18355: −1.468 fold | Fold: L-Oleandrosyl-oleandolide, mass 530.314, RT 23.87065: 1.965 fold | Fold: L-Urobilinogen;, mass 596.3543, RT 25.14927: 1.396 fold | Fold: N-Methyl-2-pyrrolidinone, mass 99.0689, RT 15.48433: 1.434 fold | Fold: Neu5Acalpha2-3Galbeta1-4Glcbeta-Sp / Neu5Acalpha2-6Galbeta1-4Glcbeta-Sp, mass 702.2497, RT 40.84822: −2.769 fold | Fold: Pantothenol / dimethylbutanamide;, mass 205.1304, RT 6.747279: −1.2578 fold | Fold: Phenanthrene-9,10-oxide, mass 194.073, RT 5.935143: −1.389 fold | Fold: Unknown, mass 99.1043, RT 52.01225: 2.703 fold | Fold: Unknown, mass 120.2112, RT 13.40565: 4.847 fold | Fold: Unknown, mass 131.076, RT 14.35336: 3.629 fold | Fold: Unknown, mass 197.1769, RT 48.37093: −3.119 fold | Fold: Unknown, mass 243.1089, RT 17.7027: −2.181 fold | Fold: Unknown, mass 268.2487, RT 42.3656: −1.55 fold | Fold: Unknown, mass 272.16, RT 43.99398: 2.187 fold | Fold: Unknown, mass 292.1862, RT 37.97297: 2.239 fold | Fold: Unknown, mass 293.9773, RT 4.014175: 1.939 fold | Fold: Unknown, mass 295.1521, RT 8.967061: 1.513 fold | Fold: Unknown, mass 298.174, RT 50.75387: −3.002 fold | Fold: Unknown, mass 300.1147, RT 18.88505: 2.686 fold | Fold: Unknown, mass 301.1345, RT 7.719471: 6.649 fold | Fold: Unknown, mass 312.1341, RT 15.22357: −2.015 fold | Fold: Unknown, mass 315.6732, RT 26.51229: 2.015 fold | Fold: Unknown, mass 325.2711, RT 18.82373: −1.756 fold | Fold: Unknown, mass 325.2714, RT 20.94557: −2.074 fold | Fold: Unknown, mass 353.2765, RT 3.85935: 2.622 fold | Fold: Unknown, mass 357.1781, RT 25.16993: 2.217 fold | Fold: Unknown, mass 359.1532, RT 24.01428: 1.536 fold | Fold: Unknown, mass 360.1321, RT 18.50245: 2.11 fold | Fold: Unknown, mass 362.2787, RT 83.72506: 2.916 fold | Fold: Unknown, mass 368.2122, RT 27.98054: 1.695 fold | Fold: Unknown, mass 379.1771, RT 20.76168: 1.54 fold | Fold: Unknown, mass 383.1721, RT 15.20829: 1.915 fold | Fold: Unknown, mass 384.2127, RT 23.38956: −2.556 fold | Fold: Unknown, mass 387.0812, RT 19.97914: −1.977 fold | Fold: Unknown, mass 388.2349, RT 46.346: 1.947 fold | Fold: Unknown, mass 403.1978, RT 51.66325: 3.116 fold | Fold: Unknown, mass 405.2001, RT 30.70733: 2.668 fold | Fold: Unknown, mass 408.1636, RT 16.21743: 1.966 fold | Fold: Unknown, mass 417.2338, RT 33.09057: 2.033 fold | Fold: Unknown, mass 417.2386, RT 21.14975: −1.98 fold | Fold: Unknown, mass 420.1862, RT 26.77212: 3.283 fold | Fold: Unknown, mass 429.2533, RT 18.03482: −1.808 fold | Fold: Unknown, mass 429.2535, RT 30.24237: 1.805 fold | Fold: Unknown, mass 431.2501, RT 35.58196: 1.532 fold | Fold: Unknown, mass 440.0223, RT 4.808947: −1.528 fold | Fold: Unknown, mass 443.2381, RT 24.13915: 2.986 fold | Fold: Unknown, mass 443.3216, RT 67.0705: 1.752 fold | Fold: Unknown, mass 444.2237, RT 51.58546: 2.131 fold | Fold: Unknown, mass 460.9391, RT 33.51823: −4.518 fold | Fold: Unknown, mass 467.3804, RT 46.51446: 2.068 fold | Fold: Unknown, mass 468.2002, RT 51.6158: 1.875 fold | Fold: Unknown, mass 471.7804, RT 30.72707: −2.836 fold | Fold: Unknown, mass 478.2761, RT 30.28867: 1.699 fold | Fold: Unknown, mass 487.3472, RT 66.73744: 2.931 fold | Fold: Unknown, mass 489.2127, RT 21.72729: −1.51 fold | Fold: Unknown, mass 510.8202, RT 31.22083: 2.488 fold | Fold: Unknown, mass 525.3161, RT 34.57864: 1.551 fold | Fold: Unknown, mass 526.2773, RT 51.73057: 3.446 fold | Fold: Unknown, mass 531.2876, RT 32.50661: 2.106 fold | Fold: Unknown, mass 531.3191, RT 35.58454: −1.252 fold | Fold: Unknown, mass 531.3736, RT 66.31491: 3.863 fold | Fold: Unknown, mass 541.3274, RT 32.24719: 2.162 fold | Fold: Unknown, mass 545.3029, RT 17.6573: −1.395 fold | Fold: Unknown, mass 554.8471, RT 31.891: 2.038 fold | Fold: Unknown, mass 555.2406, RT 15.78741: 1.835 fold | Fold: Unknown, mass 555.8505, RT 5.742094: −1.289 fold | Fold: Unknown, mass 556.3971, RT 88.02533: −3.118 fold | Fold: Unknown, mass 559.8329, RT 31.97996: −1.7213 fold | Fold: Unknown, mass 574.3397, RT 24.7039: 1.584 fold | Fold: Unknown, mass 574.3427, RT 31.71105: 1.75 fold | Fold: Unknown, mass 576.096, RT 47.90467: 1.361 fold | Fold: Unknown, mass 589.6938, RT 35.26918: 1.82 fold | Fold: Unknown, mass 591.3789, RT 31.54325: 1.578 fold | Fold: Unknown, mass 603.3535, RT 32.67372: −2.63 fold | Fold: Unknown, mass 619.3409, RT 33.68866: 1.857 fold | Fold: Unknown, mass 620.8861, RT 32.73907: 2.249 fold | Fold: Unknown, mass 635.4065, RT 32.08734: 1.393 fold
